Results taken from ChEMBL document CHEMBL5338767, “A Molecular Toolbox of Positron Emission Tomography Tracers for General Anesthesia Mechanism Research” (J Med Chem, 2023).

Columns and labels:
[1] = Dissociation constant, pKa of the compound; format: physicochemical
[2] = Lipophilicity, logD of compound at pH 7; details: buffer
[3] = Lipophilicity, logP of the compound; details: octanol/water
[4] = molecular target: Neuronal acetylcholine receptor; alpha6/beta2 (Homo sapiens, UniProt P17787+Q15825); experiment: Binding affinity to nACh alpha6beta2 receptor (unknown origin) assessed as inhibition constant; format: protein-complex assay
Chain of Neuronal acetylcholine receptor; alpha6/beta2 (P17787 whole entry): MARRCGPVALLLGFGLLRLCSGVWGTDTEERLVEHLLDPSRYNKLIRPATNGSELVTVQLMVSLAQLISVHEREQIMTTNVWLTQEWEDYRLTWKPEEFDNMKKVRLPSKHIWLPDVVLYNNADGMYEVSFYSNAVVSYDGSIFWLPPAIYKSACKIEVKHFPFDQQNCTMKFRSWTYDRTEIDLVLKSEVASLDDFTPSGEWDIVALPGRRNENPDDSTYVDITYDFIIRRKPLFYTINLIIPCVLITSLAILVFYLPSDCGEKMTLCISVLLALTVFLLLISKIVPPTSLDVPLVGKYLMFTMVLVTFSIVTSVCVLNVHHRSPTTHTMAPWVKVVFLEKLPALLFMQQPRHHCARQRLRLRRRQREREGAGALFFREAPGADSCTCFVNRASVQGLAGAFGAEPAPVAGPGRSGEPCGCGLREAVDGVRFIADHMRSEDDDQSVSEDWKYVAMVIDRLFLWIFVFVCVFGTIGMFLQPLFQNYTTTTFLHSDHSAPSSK
Chain of Neuronal acetylcholine receptor; alpha6/beta2 (Q15825 whole entry): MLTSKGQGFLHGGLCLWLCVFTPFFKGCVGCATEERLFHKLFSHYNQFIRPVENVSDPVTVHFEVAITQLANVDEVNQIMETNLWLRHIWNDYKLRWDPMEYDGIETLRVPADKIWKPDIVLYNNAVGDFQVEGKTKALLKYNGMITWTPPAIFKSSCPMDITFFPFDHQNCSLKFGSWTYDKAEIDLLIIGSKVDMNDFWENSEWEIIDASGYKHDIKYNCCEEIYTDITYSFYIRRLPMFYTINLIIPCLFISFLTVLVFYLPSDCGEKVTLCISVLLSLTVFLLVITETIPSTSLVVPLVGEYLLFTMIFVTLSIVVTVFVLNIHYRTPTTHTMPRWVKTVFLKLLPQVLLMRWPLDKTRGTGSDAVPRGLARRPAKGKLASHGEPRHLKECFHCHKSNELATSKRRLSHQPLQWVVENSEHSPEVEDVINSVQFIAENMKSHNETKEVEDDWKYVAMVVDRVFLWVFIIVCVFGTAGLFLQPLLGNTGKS

[5] = molecular target: T1, Kappa-type opioid receptor (Homo sapiens, UniProt P41145); experiment: Binding affinity to kappa opioid receptor (unknown origin) assessed as inhibition constant
T1 sequence (P41145 whole entry): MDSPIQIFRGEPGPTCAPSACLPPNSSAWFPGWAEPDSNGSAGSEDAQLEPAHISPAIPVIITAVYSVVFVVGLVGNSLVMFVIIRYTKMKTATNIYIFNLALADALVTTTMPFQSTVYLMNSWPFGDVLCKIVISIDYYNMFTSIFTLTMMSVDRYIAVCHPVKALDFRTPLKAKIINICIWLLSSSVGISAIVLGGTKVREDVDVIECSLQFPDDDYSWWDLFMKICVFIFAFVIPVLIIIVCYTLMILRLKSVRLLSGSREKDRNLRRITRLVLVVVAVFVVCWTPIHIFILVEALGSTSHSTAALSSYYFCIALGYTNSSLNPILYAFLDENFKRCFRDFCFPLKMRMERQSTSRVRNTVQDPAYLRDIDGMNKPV

[6] = Selectivity ratio of Ki for kappa opioid receptor (unknown origin) for Ki for mu opioid receptor (unknown origin)
[7] = Selectivity ratio of Ki for kappa opioid receptor (unknown origin) for Ki for delta opioid receptor (unknown origin)
[8] = molecular target: Glutamate NMDA receptor; GRIN1/GRIN2A (Homo sapiens, UniProt Q05586+Q12879); experiment: Binding affinity to GluN1/GluN2A receptor (unknown origin) assessed as inhibition constant; format: protein-complex assay
Chain of Glutamate NMDA receptor; GRIN1/GRIN2A (Q12879 whole entry, other chains not shown): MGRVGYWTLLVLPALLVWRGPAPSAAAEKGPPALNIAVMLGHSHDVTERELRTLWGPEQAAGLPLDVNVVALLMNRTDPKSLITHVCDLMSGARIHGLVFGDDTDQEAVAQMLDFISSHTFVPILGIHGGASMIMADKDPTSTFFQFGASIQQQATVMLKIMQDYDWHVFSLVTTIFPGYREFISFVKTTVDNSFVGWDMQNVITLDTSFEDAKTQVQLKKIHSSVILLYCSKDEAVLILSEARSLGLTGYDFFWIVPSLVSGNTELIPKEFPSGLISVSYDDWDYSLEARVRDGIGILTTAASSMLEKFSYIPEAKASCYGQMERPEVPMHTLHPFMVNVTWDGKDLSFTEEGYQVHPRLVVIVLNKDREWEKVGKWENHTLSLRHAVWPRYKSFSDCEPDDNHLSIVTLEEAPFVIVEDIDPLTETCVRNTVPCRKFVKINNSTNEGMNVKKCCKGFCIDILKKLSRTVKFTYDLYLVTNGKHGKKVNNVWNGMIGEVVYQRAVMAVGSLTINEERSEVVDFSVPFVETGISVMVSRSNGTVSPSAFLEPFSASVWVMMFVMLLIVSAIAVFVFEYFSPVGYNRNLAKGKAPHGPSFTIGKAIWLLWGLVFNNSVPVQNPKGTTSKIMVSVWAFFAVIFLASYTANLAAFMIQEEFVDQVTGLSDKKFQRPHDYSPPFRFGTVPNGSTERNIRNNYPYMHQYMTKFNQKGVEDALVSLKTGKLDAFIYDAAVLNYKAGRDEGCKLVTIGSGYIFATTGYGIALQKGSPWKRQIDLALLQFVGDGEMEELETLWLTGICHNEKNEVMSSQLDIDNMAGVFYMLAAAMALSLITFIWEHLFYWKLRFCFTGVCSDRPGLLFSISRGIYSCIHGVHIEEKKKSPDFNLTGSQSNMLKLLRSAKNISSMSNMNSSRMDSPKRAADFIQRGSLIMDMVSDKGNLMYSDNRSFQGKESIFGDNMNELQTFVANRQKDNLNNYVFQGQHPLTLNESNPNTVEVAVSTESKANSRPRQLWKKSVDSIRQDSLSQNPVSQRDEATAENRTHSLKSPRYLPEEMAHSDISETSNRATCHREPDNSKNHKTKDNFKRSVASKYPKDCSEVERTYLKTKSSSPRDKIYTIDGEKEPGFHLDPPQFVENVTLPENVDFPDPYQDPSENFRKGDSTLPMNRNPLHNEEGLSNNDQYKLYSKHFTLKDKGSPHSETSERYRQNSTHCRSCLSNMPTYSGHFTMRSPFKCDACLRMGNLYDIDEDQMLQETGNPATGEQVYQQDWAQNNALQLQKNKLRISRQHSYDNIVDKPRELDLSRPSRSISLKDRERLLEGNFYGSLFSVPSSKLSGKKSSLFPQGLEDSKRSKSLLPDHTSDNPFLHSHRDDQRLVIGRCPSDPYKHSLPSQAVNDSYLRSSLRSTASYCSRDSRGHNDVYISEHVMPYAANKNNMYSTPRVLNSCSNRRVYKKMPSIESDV

[9] = molecular target: T1, Kappa-type opioid receptor; experiment: Binding affinity to kappa opioid receptor (unknown origin)
[10] = molecular target: Mu-type opioid receptor (Homo sapiens, UniProt P35372)
Chain of Mu-type opioid receptor (P35372 whole entry): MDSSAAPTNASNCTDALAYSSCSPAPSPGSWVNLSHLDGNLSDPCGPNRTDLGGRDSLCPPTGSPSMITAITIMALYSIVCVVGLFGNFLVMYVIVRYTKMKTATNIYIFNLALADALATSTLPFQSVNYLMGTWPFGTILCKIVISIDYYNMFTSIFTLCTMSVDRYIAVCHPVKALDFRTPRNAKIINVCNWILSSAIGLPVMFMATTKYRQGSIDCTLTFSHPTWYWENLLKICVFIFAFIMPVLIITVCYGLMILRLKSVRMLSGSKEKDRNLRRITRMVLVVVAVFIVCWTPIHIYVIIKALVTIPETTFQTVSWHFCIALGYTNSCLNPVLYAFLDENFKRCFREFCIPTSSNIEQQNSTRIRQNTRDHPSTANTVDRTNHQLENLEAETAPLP

[11] = Binding affinity to GABA/BZ receptor (unknown origin) assessed as inhibition constant; set-up: species or system Homo sapiens
[12] = molecular target: T2, Gamma-aminobutyric acid receptor subunit alpha-1 (Homo sapiens, UniProt P14867); experiment: Binding affinity to GABAa alpha1 (unknown origin) assessed as inhibition constant
T2 sequence (P14867 whole entry): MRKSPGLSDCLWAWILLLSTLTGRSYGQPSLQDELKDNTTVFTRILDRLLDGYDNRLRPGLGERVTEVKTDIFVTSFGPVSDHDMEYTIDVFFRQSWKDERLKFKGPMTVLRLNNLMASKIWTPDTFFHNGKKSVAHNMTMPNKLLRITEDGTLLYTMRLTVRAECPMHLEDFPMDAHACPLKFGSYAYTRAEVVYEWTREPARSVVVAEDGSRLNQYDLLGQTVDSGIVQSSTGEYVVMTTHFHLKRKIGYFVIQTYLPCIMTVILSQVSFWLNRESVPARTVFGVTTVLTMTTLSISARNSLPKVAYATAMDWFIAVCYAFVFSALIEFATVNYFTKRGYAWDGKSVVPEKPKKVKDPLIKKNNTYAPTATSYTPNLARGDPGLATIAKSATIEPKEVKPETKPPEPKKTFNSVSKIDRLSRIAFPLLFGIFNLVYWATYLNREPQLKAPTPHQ

[13] = molecular target: T3, Gamma-aminobutyric acid receptor subunit alpha-2 (Homo sapiens, UniProt P47869); experiment: Binding affinity to GABAa alpha2 (unknown origin) assessed as inhibition constant
T3 sequence (P47869 whole entry): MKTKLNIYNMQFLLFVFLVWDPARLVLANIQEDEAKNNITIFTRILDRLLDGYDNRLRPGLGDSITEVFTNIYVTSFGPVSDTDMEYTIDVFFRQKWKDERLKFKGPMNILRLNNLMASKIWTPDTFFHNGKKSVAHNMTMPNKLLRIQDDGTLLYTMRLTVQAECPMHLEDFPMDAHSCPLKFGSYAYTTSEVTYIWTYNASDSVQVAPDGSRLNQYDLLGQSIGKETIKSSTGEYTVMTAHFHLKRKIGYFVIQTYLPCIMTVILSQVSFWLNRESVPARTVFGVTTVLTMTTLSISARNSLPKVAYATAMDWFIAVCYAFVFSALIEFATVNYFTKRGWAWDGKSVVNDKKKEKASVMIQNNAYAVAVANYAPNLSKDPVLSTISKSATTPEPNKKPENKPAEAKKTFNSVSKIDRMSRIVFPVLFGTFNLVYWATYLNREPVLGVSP

[14] = molecular target: T4, Gamma-aminobutyric acid receptor subunit alpha-3 (Homo sapiens, UniProt P34903); experiment: Binding affinity to GABAa alpha3 (unknown origin) assessed as inhibition constant
T4 sequence (P34903 whole entry): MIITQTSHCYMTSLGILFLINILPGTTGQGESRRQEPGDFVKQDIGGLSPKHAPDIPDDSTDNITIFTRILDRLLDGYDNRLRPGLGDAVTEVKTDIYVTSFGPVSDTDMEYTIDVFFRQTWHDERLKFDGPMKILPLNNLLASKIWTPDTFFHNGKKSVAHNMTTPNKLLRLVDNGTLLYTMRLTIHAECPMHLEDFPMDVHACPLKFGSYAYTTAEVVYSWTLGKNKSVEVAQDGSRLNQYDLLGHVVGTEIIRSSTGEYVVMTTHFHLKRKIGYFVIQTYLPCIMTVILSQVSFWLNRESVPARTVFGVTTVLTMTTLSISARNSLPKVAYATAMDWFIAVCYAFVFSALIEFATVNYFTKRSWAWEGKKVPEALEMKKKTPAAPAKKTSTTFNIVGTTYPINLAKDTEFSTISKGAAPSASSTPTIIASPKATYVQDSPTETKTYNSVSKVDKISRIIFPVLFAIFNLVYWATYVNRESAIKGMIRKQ

[15] = Lipophilicity, logD of compound at pH 7.4; format: physicochemical; details: buffer
[16] = molecular target: T5, Gamma-aminobutyric acid receptor subunit alpha-5 (Homo sapiens, UniProt P31644); experiment: Binding affinity to GABAa alpha5 (unknown origin) assessed as inhibition constant
T5 sequence (P31644 whole entry): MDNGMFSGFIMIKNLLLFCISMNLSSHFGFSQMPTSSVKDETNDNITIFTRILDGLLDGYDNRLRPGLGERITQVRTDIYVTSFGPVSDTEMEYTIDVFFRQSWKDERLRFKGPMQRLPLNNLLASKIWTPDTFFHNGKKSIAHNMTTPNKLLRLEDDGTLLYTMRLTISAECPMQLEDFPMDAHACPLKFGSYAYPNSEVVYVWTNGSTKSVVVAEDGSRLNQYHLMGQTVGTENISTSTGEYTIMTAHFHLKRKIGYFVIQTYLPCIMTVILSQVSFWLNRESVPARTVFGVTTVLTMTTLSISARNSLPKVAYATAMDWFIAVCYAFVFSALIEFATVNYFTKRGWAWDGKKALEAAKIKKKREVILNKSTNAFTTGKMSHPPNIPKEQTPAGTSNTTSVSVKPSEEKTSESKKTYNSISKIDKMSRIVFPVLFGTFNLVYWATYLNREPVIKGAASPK

[17] = Drug distribution in rhesus monkey temporal cortex assessed as maximum binding; format: ADME, tissue-based, Macaca mulatta
[18] = Half life in rhesus monkey; format: ADME, Macaca mulatta; details: in vivo
[19] = Drug distribution in rhesus monkey striatum assessed as maximum binding; format: ADME, tissue-based, Macaca mulatta
[20] = Drug distribution in rhesus monkey temporal cortex assessed as dissociation constant; format: ADME, tissue-based, Macaca mulatta
[21] = Adrenal to liver ratio in rat measured at 60 mins; format: ADME, tissue-based; details: 1 h

Row | Structure (SMILES) | pKa [1] | logD [2] | logP [3] | other results
1 | [11CH3]C(=O)c1ccc2c(c1)CCN(CCCCc1ccccc1)CC2O (centres undefined) | 8.78 | 2.94 | 4.14 | 
2 | C[C@@H](C[11CH3])CCc1cnc(Cl)c(/C=C/c2ccncc2)c1 |  |  | 4.94 | Ki [4]: 0.077 nM
3 | FC(F)([18F])C(Cl)Br (centres undefined) |  | 2.33 | 2.28 | 
4 | CCOC(=O)c1ncn2c1CN([11CH3])C(=O)c1cc(F)ccc1-2 | 0.86 |  | 1.11 | 
5 | [11CH3]OCc1scnc1N1CCN(C[C@H]2COc3ccccc3O2)CC1 | 7.21 | 2.02 | 2.65 | 
6 | CC(C)C[C@H](N)[11C](=O)O | 10.2 | -1.7 | -0.29 | 
7 | CCN(CCF)C[C@@H]1CN(C(=O)COC)CCN1C(=O)Cc1ccc(C)c(C)c1 |  |  |  | Ki [5]: 0.43 nM; Ratio Ki [6]: 17; Ratio Ki [7]: 323
8 | CC(=O)N(Cc1ccccc1OCC[18F])c1ccccc1Oc1ccccc1 |  |  | 4.51 | 
9 | C[C@H](c1ccc(Cl)cc1)n1cncc1C(=O)OCC[18F] | 3.76 | 3.76 | 2.25 | 
10 | COc1cnc(OCc2cn(-c3ccc([18F])c(C)c3)nn2)nc1 | 0.73 | 1.55 | 2.76 | 
11 | CN1C2CCCC1C(c1cncc(-c3cccc([18F])n3)c1)C2 (centres undefined) | 9.24 |  | 2.89 | Ki [4]: 0.95 nM
12 | CCCc1cc(Cl)cc2[nH]c(=O)c(-c3cccc(O[11CH3])c3)c(O)c12 | 9.06 |  | 3.78 | Ki [8]: 7200 nM
13 | N[C@H](C[C@H]1CC(C(=O)O)=NN1c1ccc(CCCF)cc1)C(=O)O |  |  |  | Ki [8]: 52 nM
14 | N[11C](=O)c1ccc(Oc2ccc(CN3CCC[C@H]3c3cccnc3)cc2)c(Cl)c1 | 8.45 | 2.71 | 3.67 | Kd [9]: 0.028 nM; Ki [10]: 25.8 nM; Ki [5]: 0.72 nM
15 | N#Cc1cc([18F])cc(C#Cc2ccccn2)c1 | 1.89 | 3.38 | 3.25 | 
16 | [11CH3]n1c2c(c3ccccc31)C[C@@]1(O)[C@H]3Cc4ccc(O)c5c4[C@@]1(CCN3CC1CC1)[C@H]2O5 | 14.2 |  | 3.31 | 
17 | FCOC(C(F)(F)F)C(F)(F)[18F] (centres undefined) |  | 2.5 | 2.24 | 
18 | [18F]CCCc1cncc(OC[C@@H]2CCN2)c1 | 9.09 | -1.44 | 0.86 | Ki [4]: 0.67 nM
19 | CCN(CC)C[C@@H]1CN(C(=O)CO[11CH3])CCN1C(=O)Cc1ccc(C)c(C)c1 | 8.6 |  | 1.67 | Ki [5]: 0.28 nM
20 | CCOC(=O)c1ncn2c1CN(C)C(=O)c1cc([18F])ccc1-2 | 0.86 |  | 1.11 | 
21 | CCOC(=O)c1ncn2c1CN(C)C(=O)c1cc(N=[N+]=[N-])ccc1-2 [Ro-154513] |  |  |  | Ki [11]: 0.7 nM; Ki [12]: 7 nM; Ki [13]: 7 nM; Ki [14]: 7 nM
22 | CCN(CC)C[C@@H]1CN(C(=O)COC)CCN1C(=O)Cc1ccc(C)c(C)c1 |  |  |  | Ki [5]: 0.28 nM

Row | Structure (SMILES) | pKa [1] | logD [2] | logP [3] | other results
23 | CN1C2CCCC1C(c1cncc(-c3cccnc3[18F])c1)C2 (centres undefined) | 9.18 |  | 2.47 | Ki [4]: 0.06 nM
24 | [18F]c1ncccc1OC[C@H]1CCN1 | 8.95 |  |  | 
25 | [18F]c1ccc(C2CC3CCCC2N3)cn1 (single isomer, unassigned; (-)) | 9.28 | -0.76 | 1.75 | 
26 | FC(F)OC(F)C(F)(F)F (centres undefined) |  | 1.88 | 2.16 | 
27 | C[11CH2]OC(=O)c1cncn1[C@H](C)c1ccccc1 | 4.23 | 3.05 | 1.83 | 
28 | CN1CC=C[C@H]1COc1cccnc1[18F] | 8.09 | 0.3 | 1.21 | Ki [4]: 0.5 nM
29 | CN([11CH3])Cc1ccccc1Sc1ccc(C#N)cc1N | 9.43 | 0.89 | 3.31 | 
30 | CCN(CCF)C[C@@H]1CN(C(=O)CO[11CH3])CCN1C(=O)Cc1ccc(C)c(C)c1 | 7.51 |  | 1.53 | 
31 | [11CH3]OC(=O)c1cncn1Cc1ccccc1 | 4.08 | 2.19 | 1.18 | 
32 | CN(C)c1cccc2c(S(=O)(=O)N/N=C/c3ccc([18F])cc3)cccc12 |  | 3.92 | 4.94 | 
33 | CC(OC(F)F)C(F)(F)F (centres undefined) |  | 2.12 | 2.47 | 
34 | NC(=O)c1ccc(Oc2ccc(CN3CCC[C@H]3c3cccnc3)cc2)c([18F])c1 | 8.45 | 2.07 | 3.27 | 
35 | [18F]c1ccc2cnn(N=C3NCCN3)c2c1 | 7.94 | 0.09 | 1.11 | 
36 | [11CH3]Oc1cccc(-c2c(O)c3c(I)cc(Cl)cc3[nH]c2=O)c1 | 8.83 | 1.91 | 3.81 | Ki [8]: 10300 nM
37 | Cc1cn([C@H]2C[C@H]([18F])[C@@H](CO)O2)c(=O)[nH]c1=O [ALOVUDINE F-18] | 13.7 | -0.2 | -0.41 | 
38 | [18F]CCCc1cncc(OC[C@@H]2C=CCN2)c1 | 8.21 | 0.71 | 1.42 | Ki [4]: 0.36 nM
39 | Oc1ccc2c(c1)CCN(CCCCc1ccccc1[18F])C[C@@H]2O | 8.68 | 2.07 | 4.03 | logD [15]: 2.2
40 | CCOC(=O)c1ncn2c1CN([11CH3])C(=O)c1cc(N=[N+]=[N-])ccc1-2 | 8.45 |  |  | Ki [16]: ~0.5 nM
41 | CN([11CH3])[C@]1(c2ccccc2Cl)CCCCC1=O | 6.92 | 2.93 | 2.84 | Kd [17]: 4000 nM; half-life [18]: > 15 min; Kd [19]: 14000 nM; Kd [20]: 7000 nM
42 | C[C@H](c1ccccc1)n1cncc1C(=O)OCC[18F] | 3.83 | 2.99 | 1.69 | Ratio [21]: 14.48
43 | O=S1(=O)c2cc(N3CCN4CCC3CC4)ccc2-c2cccc([18F])c21 | 8.68 | 1.72 | 2.71 | 
